Assay results reported in patent US20060247251A1, “2-Cyanopyrrolopyrimidines and pharmaceutical uses thereof” (priority 2003, published 2006).

Target: recombinant human cathepsin S (Homo sapiens, UniProt P25774)
Assay: in vitro cathepsin S assay
Format: biochemical
Conditions: substrate Z-Leu-Leu-4-methylcoumaryl-7-amide, pH 7.0, ambient temperature, read-out: IC50 for the inhibition of human cathepsin S
Experimental: The in vitro assay is carried out in clear, flat-bottomed, 96-well microtiter plates (Greiner GmbH, Germany) at ambient temperature using recombinant human cathepsin S. Inhibition of human cathepsin S is assayed at a constant enzyme and various substrate concentrations (substrate is Z-Leu-Leu-4-methylcoumaryl-7-amide (Bachem (Switzerland)) in 100 parts 0.2M sodium phosphate, pH 7.0, containing 2 mM EDTA, 2 parts 1% Triton X-100, 10 parts 20 mM dithlothreitol (DTT) and 58 parts distilled water. The assay is started by adding the enzyme solution (13 times higher concentration of final concentration of recombinant human Cathepsin S) to the reaction mixture containing various concentrations of the corresponding substrate and the compound. Substrate concentrations between 3.4 and 17 μM are used. The recombinant human Cathepsin S is used at a final concentration of 0.04 nM. Test compounds are used at concentrations between 0.4 and 2 times the determined IC50 of the compound at the enzyme. The relative fluorescence is continuously measured for 30 minutes and the initial velocity is obtained from each progress curve. […]

Sequence of recombinant human cathepsin S (P25774 115-331): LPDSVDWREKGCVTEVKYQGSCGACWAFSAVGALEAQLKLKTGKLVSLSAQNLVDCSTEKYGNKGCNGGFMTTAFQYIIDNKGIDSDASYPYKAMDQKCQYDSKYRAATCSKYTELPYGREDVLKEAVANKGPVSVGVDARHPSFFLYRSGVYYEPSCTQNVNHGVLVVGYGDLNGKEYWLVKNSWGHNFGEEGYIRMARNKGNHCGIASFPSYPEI

IC50 | Structure (SMILES)
32 nM | CCCNC(=O)c1ccc(OCc2cc3cnc(C#N)nc3n2CCC2CCCCC2)c(Cl)c1 [Example 54]
30 nM | N#Cc1ncc2cc(Cc3ccc(F)c(F)c3)n(CCc3ccc(Cl)cc3)c2n1 [Example 169]
5.1 nM | CC(C)(C)CCn1c(Cc2ccc(CO)cc2)cc2cnc(C#N)nc21 [Example 175]
35 nM | N#Cc1ncc2cc(Cc3ccc(N4CCCC4=O)cc3)n(CCC3CCCCC3)c2n1 [Example 179, 7-(2-Cyclohexyl-ethyl)-6-[4-(2-oxo-pyrrolidin-1-yl)-benzyl]-7H-pyrrolo[2,3-d]pyrimidine-2-carbonitrile]
4.1 nM | CC(C)CCn1c(Cc2cccs2)cc2cnc(C#N)nc21 [Example 193]
33 nM | N#Cc1ncc2cc(CN3CCCC3)n(CCC3CCCCC3)c2n1 [Example 278]
48 nM | CC(=O)N1CCC2(CCN(Cc3cc4cnc(C#N)nc4n3CCC3CCCCC3)CC2)C1 [Example 335, 6-(2-Acetyl-2,8-diaza-spiro[4,5]dec-8-ylmethyl)-7-(2-cyclohexyl-ethyl)-7H-pyrrolo[2,3-d]pyrimidine-2-carbonitrile]
